Laboratory results reported in patent US11766434B2, “Pyrimidinone derivatives as CDC7 inhibitors” (Cancer Research Technology Limited, priority 2016, dated 2023).

Key:
Cdc7/ASK = Cdc7/ASK (Homo sapiens, UniProt O00311); assay: Cdc7 biochemical assay Method 1: 384 well ELISA, MCM2 whole protein substrate, Phospho MCM2 (S53) antibody; set-up: purchased; conditions: ATP 2 μM, 90 minutes, read-out: Biochemical method 1 (pIC50) (converted)
Method in brief: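 Commercial Cdc7/ASK phosphorylates plate-bound MCM2 with 2 μM ATP in Tris pH 8.5/MgCl2/DTT, 4% DMSO, 90 min at room temperature. Phospho-MCM2 (S53) detected by antibody ELISA with AP/PNPP absorbance. Inhibition normalised to DMSO and no-enzyme controls; IC50 from curve fit.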

Cdc7/Dbf4 = Cdc7/Dbf4 (Homo sapiens, UniProt O00311); assay: Cdc7 biochemical assay Method 2: Cdc7/Dbf4 Enzyme TR-FRET Assay measuring pS40MCM2; conditions: pS40 MCM2 peptide, 1 μM ATP, 25° C., 120 minutes, read-out: Biochemical Method 2 (pIC50) (converted)
Sequence of Cdc7/Dbf4 (O00311 whole entry): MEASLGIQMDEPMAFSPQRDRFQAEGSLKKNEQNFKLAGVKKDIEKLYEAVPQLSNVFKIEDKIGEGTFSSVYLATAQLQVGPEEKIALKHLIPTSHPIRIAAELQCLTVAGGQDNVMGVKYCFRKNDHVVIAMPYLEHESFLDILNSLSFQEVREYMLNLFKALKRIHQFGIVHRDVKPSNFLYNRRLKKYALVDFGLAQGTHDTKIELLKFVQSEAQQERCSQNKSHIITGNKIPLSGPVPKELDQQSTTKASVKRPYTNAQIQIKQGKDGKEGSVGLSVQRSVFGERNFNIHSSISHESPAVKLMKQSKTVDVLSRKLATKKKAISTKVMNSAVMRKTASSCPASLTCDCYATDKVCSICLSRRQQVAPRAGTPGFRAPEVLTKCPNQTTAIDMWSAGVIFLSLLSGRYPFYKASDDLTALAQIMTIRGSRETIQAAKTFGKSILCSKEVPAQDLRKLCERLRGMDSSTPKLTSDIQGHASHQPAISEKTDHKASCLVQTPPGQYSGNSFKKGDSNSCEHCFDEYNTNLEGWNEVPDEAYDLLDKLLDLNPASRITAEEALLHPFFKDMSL
Sequence of Cdc7/Dbf4 (Q9UBU7 whole entry partner): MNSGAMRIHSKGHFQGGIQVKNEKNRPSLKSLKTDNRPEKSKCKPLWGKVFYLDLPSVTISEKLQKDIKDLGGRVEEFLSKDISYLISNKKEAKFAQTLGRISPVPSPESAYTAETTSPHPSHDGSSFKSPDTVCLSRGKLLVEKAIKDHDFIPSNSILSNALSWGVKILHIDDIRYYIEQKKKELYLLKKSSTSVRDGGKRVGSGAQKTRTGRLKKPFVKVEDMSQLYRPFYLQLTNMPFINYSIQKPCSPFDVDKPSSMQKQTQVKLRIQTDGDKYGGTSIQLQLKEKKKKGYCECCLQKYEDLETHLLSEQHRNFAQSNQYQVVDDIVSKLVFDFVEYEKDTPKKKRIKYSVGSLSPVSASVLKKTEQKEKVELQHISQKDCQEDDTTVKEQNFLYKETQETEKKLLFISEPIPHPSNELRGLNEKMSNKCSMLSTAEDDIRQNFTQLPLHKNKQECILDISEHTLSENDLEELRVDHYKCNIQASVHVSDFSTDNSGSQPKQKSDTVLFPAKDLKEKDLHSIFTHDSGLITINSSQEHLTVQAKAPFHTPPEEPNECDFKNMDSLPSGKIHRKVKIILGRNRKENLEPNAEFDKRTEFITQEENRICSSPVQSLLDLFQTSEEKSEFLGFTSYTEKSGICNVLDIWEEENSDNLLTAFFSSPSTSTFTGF
Description: This protocol describes a method for assaying a compounds' ability to inhibit Cdc7 activity by measuring pS40MCM2 levels in a Cdc7/Dbf4 Enzyme TR-FRET Assay.
2.5 nM Cdc7/Dbf4 was incubated with 100 nM of biotin-labelled peptide 35-TDALTS(pS)PGRDLP in the presence of 1 μM ATP at 25° C. for 120 minutes. The phosphorylation of the peptide was detected using TR-FRET. Anti-Mcm2 (pS40) antibody, Terbium anti-rabbit secondary antibody and Streptavidin-Alexa Fluor488 form the detection system.

Sequence of Cdc7/ASK (O00311 whole entry): as the sequence (O00311 whole entry) above
Sequence of Cdc7/ASK (Q9UBU7 whole entry partner): as the sequence (Q9UBU7 whole entry partner) above

SMILES | IC50 (Cdc7/ASK) [nM] | IC50 (Cdc7/Dbf4) [nM]
O=c1[nH]c(-c2scnc2Cl)nc(C2CCOCC2)c1Cl [Compound 4, 5-chloro-2-(4-chlorothiazol-5-yl)-4-tetrahydropyran-4-yl-1H-pyrimidin-6-one] | 1.62 | –
Cc1ncsc1-c1nc(C2CCOCC2)c(Cl)c(=O)[nH]1 [Compound 6, 5-chloro-2-(4-methylthiazol-5-yl)-4-tetrahydropyran-4-yl-1H-pyrimidin-6-one] | 3.8 | 1.95
O=c1[nH]c(-c2scnc2C(F)(F)F)nc(C2CCOCC2)c1Cl [Compound 14, 5-chloro-4-tetrahydropyran-4-yl-2-[4-(trifluoromethyl)thiazol-5-yl]-1H-pyrimidin-6-one] | 1.82 | –
O=c1[nH]c(-c2cn[nH]c2C(F)(F)F)nc(C2CCOCC2)c1Cl [Compound 17, 5-chloro-4-tetrahydropyran-4-yl-2-[5-(trifluoromethyl)-1H-pyrazol-4-yl]-1H-pyrimidin-6-one] | 1.2 | 1.45
Cc1ncsc1-c1nc(N2CCN[C@@H](C(F)(F)F)C2)c(Cl)c(=O)[nH]1 [Compound 28, 5-chloro-2-(4-methylthiazol-5-yl)-4-[(3R)-3-(trifluoromethyl)piperazin-1-yl]-1H-pyrimidin-6-one] | 2.09 | –
C[C@@H]1COCCN1c1nc(-c2cn[nH]c2C(F)(F)F)[nH]c(=O)c1Cl [Compound 41, 5-chloro-4-[(3R)-3-methylmorpholin-4-yl]-2-[5-(trifluoromethyl)-1H-pyrazol-4-yl]-1H-pyrimidin-6-one] | – | 0.832
C[C@@H]1CNCCN1c1nc(-c2cn[nH]c2Cl)[nH]c(=O)c1Cl [Compound 43, 5-chloro-2-(5-chloro-1H-pyrazol-4-yl)-4-[(2R)-2-methylpiperazin-1-yl]-1H-pyrimidin-6-one] | – | 1.82
C[C@@H]1CNCCN1c1nc(-c2cn[nH]c2C(F)(F)F)[nH]c(=O)c1Cl [Compound 44, 5-chloro-4-[(2R)-2-methylpiperazin-1-yl]-2-[5-(trifluoromethyl)-1H-pyrazol-4-yl]-1H-pyrimidin-6-one] | – | 2.69
